Columns and labels:
[1] = system: PGE2; experiment: PGE2 production by chondrocytes (RIA); type: cell-based, bovine; conditions: orthovanadate 100 uM
Description: Bovine articular chondrocytes were isolated and plated as previously described (Kandel R. A. et al. Biochim. Biophys. Acta. 1053, 130-134, 1990). In order to determine the effect of orthovanadate on IL 1 and PMA (phorbol ester) induced responses, chondrocytes were incubated with orthovanadate (100 μM) for 2 hours before stimulation with IL 1 (10 ng/ml) or PMA ([…]). collagenase production was determined by incubating chondrocytes for 24 hours with IL 1 or PMA and the cell conditioned medium was assayed for collagenase activity using an ELISA procedure as described previously (Kandel et al. supra) PLA2 activity was measured by incorporating ^3 H-arachidonic acid (^3 H-AA) into the cells and then incubating the cells with medium containing 1 mg/ml BSA, either alone or in the presence of IL 1 or PMA, for 10 min. as previously described (Conquer, J. A. […], Biochim. Biophys. Acta. 1134, 1-6). The amount of ^3 H-AA liberated into the supernatant was determined. To measure PGE2 production, chondrocytes were incubated for 6 hours in Ham's F12 medium, either alone or with IL 1 or PMA. The supernatant was analyzed by RIA using an antibody specific for PGE2 (Dr. S. A. Jones, Mount Sinai Hospital, Toronto, Can.). In order to examine the expression of c-fos and c-jun, chondrocytes were incubated for 1 hour in the presence of IL-1, PMA or AA (3 μM). […]

[2] = system: fos; experiment: Northern blot analysis of fos mRNA expression in chondrocytes; type: cell-based, bovine
Description: (§1) The cytokine interleukin 1 (IL 1) has been used to identify the intermediate second messengers which regulate the expression of fos and jun.
In order to elucidate this possibility, the effect of DPI on fos and jun mRNA levels induced by IL 1 was investigated. RNA from chondrocytes treated with IL 1 in the presence and absence of DPI were analyzed by Northern blot analysis using either fos or collagenase cDNA probes.
Since superoxides are rapidly converted to hydrogen peroxide in the cell by superoxide dismutase, whether hydrogen peroxide could mimic the effect of IL 1 in the induction of fos expression was investigated. RNA was extracted from chondrocytes (Kandel et al. supra) treated with H2 O2 for 30, 60 and 90 minutes and examined by Northern blot analysis using a fos cDNA probe.
(§2) Bovine articular chondrocytes were isolated and plated as previously described (Kandel R. A. et al. Biochim. Biophys. Acta. 1053, 130-134, 1990). In order to determine the effect of orthovanadate on IL 1 and PMA (phorbol ester) induced responses, chondrocytes were incubated with orthovanadate (100 μM) for 2 hours before stimulation with IL 1 (10 ng/ml) or PMA ([…]). collagenase production was determined by incubating chondrocytes for 24 hours with IL 1 or PMA and the cell conditioned medium was assayed for collagenase activity using an ELISA procedure as described previously (Kandel et al. supra) PLA2 activity was measured by incorporating ^3 H-arachidonic acid (^3 H-AA) into the cells and then incubating the cells with medium containing 1 mg/ml BSA, either alone or in the presence of IL 1 or PMA, for 10 min. as previously described (Conquer, J. A. […], Biochim. Biophys. Acta. 1134, 1-6). The amount of ^3 H-AA liberated into the supernatant was determined. To measure PGE2 production, chondrocytes were incubated for 6 hours in Ham's F12 medium, either alone or with IL 1 or PMA. The supernatant was analyzed by RIA using an antibody specific for PGE2 (Dr. S. A. Jones, Mount Sinai Hospital, Toronto, Can.). In order to examine the expression of c-fos and c-jun, chondrocytes were incubated for 1 hour in the presence of IL-1, PMA or AA (3 μM). Chondrocytes were washed in PBS and the total RNA extracted as previously described (Cruz. et al, 1991, Biochem. J. 277, 327-330). RNA samples were run on formaldehyde agarose gels and transferred to nylon membrane for northern analysis using cDNA probes for c-fos and c-jun.
Cells were also incubated as described above with 20 mM N-acetylcyateine for 20 min. and then incubated with IL 1 for an additional 1 or 12 hours. The RNA was extracted and examined by Northern blot analysis using cDNA probes for c-fos and collagenase.

[3] = system: non-proliferating chondrocytes; experiment: Viability of non-proliferating chondrocytes (high cell density); type: cell-based, bovine; conditions: 0-50 μM, 48 hours; FIG. 6
Description: (§3) As described in example 1, orthovanadate inhibited fos, jun and collagenase expression. If fos and jun expression are required for cellular proliferation, then orthovanadate should inhibit chondrocyte proliferation. In order to compare the effect of orthovanadate on non-proliferating and proliferating chondrocytes, chondrocytes were plated at both high cell density (2×10^6 to 4×10^6 cells/per well on a six well plate) (nonproliferating) and at a lower cell density (5×10^5 to 1×10^6 cells/per well on a six well plate) (proliferating) and then maintained for 48 hours. The cells were then incubated in media (HAMS F12) containing 0-50 μM Orthovanadate for an additional 48 hours. The cells were harvested and the number of viable cells determined.

[4] = Tolerability/toxicity of orthovanadate in mice, Example 9; type: in vivo
From the text: However, subcutaneous injections of up to 500 μgms orthovanadate is tolerated by the animals. Slow administration of the orthovanadate would decrease toxicity and the animals may tolerate higher doses.

[5] = system: MDAY-D2 cells; experiment: Viability of MDAY-D2 cells with different vanadyl compounds; type: cell-based, mouse; conditions: 0-50 μM, 48 hours; FIG. 8
Description: Three different forms of vanadyl compounds were examined for their effect on viability of cancer cell lines. MDAY-D2 cells were incubated in media containing 0-50 μM orthovanadate, vanadyl sulphate, or vanadyl hydroperoxide for 48 hours. The cells were harvested and the number of viable cells determined. […] Although there were slight differences in sensitivity, the overall cell death was similar.

[6] = Dose required to reach serum concentration highly toxic to cancer cells; design: species or system animals; conditions: in vivo
[7] = system: KB8, KB8-5 and KB85-11 cells; experiment: Viability of drug resistant ovarian cancer cell lines; type: cell-based
From the text: The effect of orthovanadate on three ovarian cancer cell lines, KB8, KB8-5 and KB85-11, which have increasing drug resistance, respectively, relative to the parent cell line, KB3-1 was compared. These drug resistant cell lines are not killed by several classes of chemotherapeutic agents such as colchicine, vinblastine and doxorubicin. […] The cells were harvested and the number of viable cells determined.

[8] = system: jun; experiment: Northern blot analysis of jun mRNA expression in chondrocytes; type: cell-based, bovine
From the text: as §1
Although IL 1 stimulated superoxide production, it was not known whether IL 1 induced fos and jun expression was dependent on the production of superoxides. In order to elucidate this possibility, the effect of DPI on fos and jun mRNA levels induced by IL 1 was investigated. RNA from chondrocytes treated with IL 1 in the presence and absence of DPI were analyzed by Northern blot analysis using either fos or collagenase cDNA probes. […] Similar data has been obtained for IL 1 induced jun expression. Furthermore, inhibition of fos and jun expression by DPI was sufficient to suppress IL 1 induced and constitutive collagenase expression.
as §2

[9] = system: MDAY-D2; experiment: MDAY-D2 tumor growth in mice, combination therapy, Example 7; type: in vivo
Description: Twenty mice were injected subcutaneously with 2×10^5 cells on Day 1. At day 4, the mice were divided into four groups of five mice. Group one (control) received subcutaneous injections of 50 μl of water. Group two received daily intraperitoneal injections of 50 μl of 250 mM N-acetylcysteine. Group three received daily subcutaneous injections of 50 μl of 10 mg/ml of orthovanadate. Group four received daily intraperitoneal injections of 50 μl of […] N-acetylcysteine and 20 minutes later received 50 μl of subcutaneous injection of 50 μl of 10 mg/ml of orthovanadate. On day 10 the treatment was stopped. The animals were sacrificed on Day 13 and analyzed for tumor growth.

[10] = system: proliferating chondrocytes; experiment: Viability of proliferating chondrocytes (low cell density); type: cell-based, bovine; conditions: 0-50 μM, 48 hours; FIG. 6
Description: as §3

[11] = orthovanadate 100 μM, FIGS. 4 and 18

What does the source list for `[O]=[V]([O-])([O-])[O-]` [orthovanadate]?
production of PGE2 (IL 1 or PMA) [1]: did not inhibit; IL 1, PMA and AA induced c-fos expression [2, 11]: completely inhibited; fos expression in response to factors such as IL 1 or arachidonic acid ([2]; summary statement): completely inhibit; toxicity to chondrocytes plated at high cell density (non-proliferating) [3]: did not effect; intraperitoneal toxicity ([4]; intraperitoneal, high doses): toxic; oral toxicity ([4]; oral, 0.5 mg/ml, laboratory mice): gastric toxicity; tolerated dose, subcutaneous ([4]; subcutaneous injections): up to 500 μgms; effectiveness in killing MDAY-D2 cells [5]: equally effective; dose required to reach serum concentrations highly toxic to cancer cells [6]: at least 0.2 mg/kg; effectiveness in killing drug resistant cell lines ([7]; 0-50 μM, 48 hours, FIG. 10): equally effective; cell death by three days of administration ([7]; three days): most of the cells had died; IL 1, PMA and AA induced c-jun expression [8, 11]: completely inhibited; jun expression in response to factors such as IL 1 or arachidonic acid ([8]; summary statement): completely inhibit; animals that died during the experiment ([9]; 10 mg/ml s.c. daily, group of five mice): One orthovanadate treated animal died; animals without detectable tumors ([9]; day 13, FIG. 14, orthovanadate: of four mice, combination: of five): two had no detectable tumors; toxicity to cells plated at low cell density (proliferating) [10]: toxic
